Where two headings read alike, the source gives them in different places.
Experiments:
[1] = system: vasopressin type 2 receptor knockout mouse model; test: Urine concentrating ability in vasopressin type 2 receptor knockout mouse model; assay type: in vivo
[2] = system: tolvaptan treated rats; test: Urine osmolality / urine concentrating ability in tolvaptan treated rats; assay type: in vivo; settings: FIG. 1; for urine osmolality: rats on tolvaptan 10 mg/kg/day by gavage, AMPK activator 2.5, 5 and 10 mg/kg/day up to 14 days, vs tolvaptan only
Method: Tolvaptan (10 mg/kg/day) was delivered by gavage feeding daily. AMPK activator was given at 2.5, 5 and 10 mg/kg/day for up to 14 total days, with daily urine collection for osmolality determination. Light bars: Osmolality in rats receiving tolvaptan only. Black bars: treated rats. Mean±s.e., n=4-5 for lower doses, 8-10 for 10 mg/kg/day, *=p<0.05.

[3] = Hypoglycemia liability of AMPK activators; assay type: in vivo; settings: preliminary data
[4] = system: adenosine monophosphate activated protein kinase (AMPK); test: AMPK activator potency and specificity (preliminary data)
[5] = system: autosomal dominant polycystic kidney disease (ADPKD); settings: cited from earlier work
[6] = system: rodents with nephrogenic diabetes insipidus; settings: Efe et al., JCI Insight 2016; cited from earlier work
[7] = general statement on some AMPK activators; cited from earlier work

Q: Which urine concentrating ability [1] does the source give for NC(=O)C1(CCCCCCCCCCCCC2(C(N)=O)CC2)CC1 [NP-5033, 1,1′-(dodecane-1,12-diyl)bis(cyclopropane-1-carboxamide)] here?
A: improvement in urine concentrating ability

Q: What about the urine osmolality [2] of the same compound?
A: increases urine osmolality

Q: What about the urine osmolality ([2]; listed as AMPK activator) of the same compound?
A: urine osmolality increases

Q: What about the urine concentrating ability ([2]; tolvaptan treated rats) of the same compound?
A: improvement in urine concentrating ability

Q: What about the hypoglycemia [3] of the same compound?
A: does not cause hypoglycemia

Q: And the “potency and specificity as AMPK activator” value [4]?
A: potent, specific

Q: Which “progression of renal cyst development” value ([5]; ADPKD) does the source give for Cc1ccccc1C(=O)Nc1ccc(C(=O)N2CCCC(O)c3cc(Cl)ccc32)c(C)c1 (stereo not shown) [tolvaptan, N-(4-(7-chloro-5-hydroxy-2,3,4,5-tetrahydro-1H-benzo[b]azepine-1-carbonyl)-3-methylphenyl)-2-methylbenzamide] here?
A: slows the progression of renal cyst development

Q: And the “side effect: urine volume” value ([5]; tolvaptan treatment, polyuria defined as greater than 2.5 L or 3 L over 24 hours in adults)?
A: overt polyuria

Q: Which urine concentration [6] does the source give for CN(C)C(=N)N=C(N)N [metformin] here?
A: improves urine concentration

Q: And the hypoglycemia [7]?
A: risk of developing hypoglycemia

From patent US20230364039A1, “Methods of Managing Side Effects of a Vasopressin Receptor Antagonist Therapy” (Emory University, priority 2020, published 2023)
